{"source": "patent US6541463B1", "about": "“Inhibitors of type 5 and type 3 17β-hydroxysteroid dehydrogenase and methods for their use” (Endorecherche, Inc., priority 1998, dated 2003)", "key": {"[1]": {"system": "Shionogi mouse mammary carcinoma cells", "experiment": "Androgenic activity: stimulation of proliferation of Shionogi cells", "assay_type": "cell-based", "conditions": "Table 4′", "in_short": "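Shionogi mouse mammary carcinoma cells, at 20 000 cells/well in medium with 5% charcoal-stripped FCS, were grown 10–12 days with the inhibitor at 10^−7 M and 10^−6 M in triplicate. Medium was changed every 3–4 days. Proliferation was read by Coulter counting and given as % stimulation.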"}, "[2]": {"biological_target": "T1, estrogen receptor (Rattus norvegicus, UniProt P06211)", "T1 construct": "from tissue; host or cells: uterine cytosol of gonadectomized female Sprague-Dawley rats", "T1 sequence (P06211 1-600)": "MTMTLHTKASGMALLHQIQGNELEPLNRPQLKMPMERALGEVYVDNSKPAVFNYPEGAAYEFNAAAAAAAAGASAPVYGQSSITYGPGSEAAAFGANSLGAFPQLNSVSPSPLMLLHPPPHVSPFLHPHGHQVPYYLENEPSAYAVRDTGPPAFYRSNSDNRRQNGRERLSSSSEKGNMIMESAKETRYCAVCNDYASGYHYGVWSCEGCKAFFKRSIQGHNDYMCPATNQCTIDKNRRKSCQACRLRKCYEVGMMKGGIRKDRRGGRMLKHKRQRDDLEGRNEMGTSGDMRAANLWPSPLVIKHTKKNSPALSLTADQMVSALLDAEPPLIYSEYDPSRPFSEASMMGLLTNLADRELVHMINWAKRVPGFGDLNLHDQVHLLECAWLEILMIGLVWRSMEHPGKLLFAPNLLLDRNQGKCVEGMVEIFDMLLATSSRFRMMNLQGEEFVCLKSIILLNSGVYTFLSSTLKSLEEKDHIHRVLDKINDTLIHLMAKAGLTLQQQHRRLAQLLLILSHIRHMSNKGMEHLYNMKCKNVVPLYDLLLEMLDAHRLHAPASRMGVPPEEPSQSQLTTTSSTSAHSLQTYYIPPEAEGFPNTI", "experiment": "Estrogen receptor (ER) assay: inhibition of [3H]E2 binding, uterine cytosol", "conditions": "Table 4′"}}, "data": [{"smiles": "COc1cc2c(cc1C)C1CCC3(C)C(CCC34CCC(C)(C)C(=O)O4)C1CC2", "note": "(stereo not drawn) [EM-1412-CS]", "values": [{"measurement": "Androgenic Activity Shionogi, Basal E^−6", "setting": "[1]", "result": "−11", "unit": "%"}, {"measurement": "Androgenic Activity Shionogi, Basal E^−7", "setting": "[1]", "result": 0, "unit": "%"}, {"measurement": "% Inhibition Estrogen Receptor E^−6", "setting": "[2]", "result": 0, "unit": "%"}, {"measurement": "% Inhibition Estrogen Receptor E^−8", "setting": "[2]", "result": 0, "unit": "%"}]}, {"smiles": "COCCOc1cc2c(cc1C(N)=O)C1CC[C@@]3(C)C(CC[C@@]34CCC(C)(C)C(=O)O4)C1CC2", "note": "(stereo partly drawn) [EM-1424, 2-Carbamoyl-3-(2″-methoxyethyloxy)-1,3,5(10)-estratrien 17(R)-spiro-2′-(5′,5′-dimethyl-6′-oxo)tetrahydropyran]", "values": [{"measurement": "Androgenic Activity Shionogi, Basal E^−6", "setting": "[1]", "result": "−17", "unit": "%"}, {"measurement": "Androgenic Activity Shionogi, Basal E^−7", "setting": "[1]", "result": 0, "unit": "%"}, {"measurement": "% Inhibition Estrogen Receptor E^−6", "setting": "[2]", "result": 3, "unit": "%"}, {"measurement": "% Inhibition Estrogen Receptor E^−8", "setting": "[2]", "result": 3, "unit": "%"}]}, {"smiles": "COCCOc1cc2c(cc1C(F)(F)F)[C@H]1CC[C@@]3(C)[C@@H](CC[C@@]34CCC(C)(C)C(=O)O4)[C@@H]1CC2", "note": "[EM-1438, 3-(2′-Methoxyethoxy)-2-trifluoromethyl-1,3,5(10)-estratrien-17(R)-spiro-2′-(5′,5′-dimethyl-6′-oxo)tetrahydropyran]", "values": [{"measurement": "Androgenic Activity Shionogi, Basal E^−6", "setting": "[1]", "result": "−14", "unit": "%"}, {"measurement": "Androgenic Activity Shionogi, Basal E^−7", "setting": "[1]", "result": 10, "unit": "%"}, {"measurement": "% Inhibition Estrogen Receptor E^−6", "setting": "[2]", "result": 0, "unit": "%"}, {"measurement": "% Inhibition Estrogen Receptor E^−8", "setting": "[2]", "result": 4, "unit": "%"}]}]}
